# Measured values published in patent US10597388B2, “Pyridazinone herbicides” (FMC CORPORATION, priority 2014, dated 2020).
# Where two headings read alike, the source gives them in different places.
# Key:
# Format in all cases: in vivo
# [1] = system: barnyardgrass (Echinochloa crus-galli); assay: Test A greenhouse herbicide test, pre- and postemergence; details: Echinochloa crus-galli, 240 h, 1000 g ai/ha, 0 to 100 scale
# How it was run: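 Visual injury ratings, 0 (no effect) to 100 (complete control), versus untreated plants after roughly 10 d in a greenhouse. Compounds, formulated in a surfactant-containing non-phytotoxic solvent, were sprayed on loam–sand soil after sowing (pre) or on one- to two-leaf plants 2–10 cm tall (post).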
# [2] = system: corn (Zea mays); assay: Test C greenhouse herbicide test, pre- and postemergence
# How it was run: (§1)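 Visual 0–100 injury score (100 = complete control) taken against untreated controls after 13–15 d in greenhouse. Test chemicals, formulated in solvent plus surfactant, applied preemergence to seeds in loam–sand soil or postemergence to 1- to 4-leaf plants (2–18 cm).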
# [3] = system: waterhemp (common waterhemp, Amaranthus rudis); assay: as above
# How it was run: as §1
# [4] = system: foxtail, giant (giant foxtail, Setaria faberii); assay: as above
# How it was run: as §1
# [5] = system: johnsongrass (Sorghum halepense); assay: as above
# How it was run: as §1
# [6] = system: wheat (winter wheat, Triticum aestivum); assay: as above
# How it was run: as §1
# [7] = system: morningglory (Ipomoea coccinea); assay: as above
# How it was run: as §1
# [8] = system: oilseed rape (Brassica napus); assay: as above
# How it was run: as §1
# [9] = system: crabgrass, large (large crabgrass, Digitaria sanguinalis); assay: as above
# How it was run: as §1
# [10] = system: lambsquarters (Chenopodium album); assay: as above
# How it was run: as §1
# [11] = Postemergence, 31 g ai/ha, 0 to 100 scale (0 no effect, 100 complete control)
# [12] = Postemergence, 125 g ai/ha, scale 0 to 100, 0 is no effect, 100 is complete control
# [13] = Postemergence, 250 g ai/ha, scale 0 to 100, 0 no effect, 100 complete control, 13 to 15 d
# [14] = Preemergence, 31 g ai/ha, scale 0 to 100, 0 is no effect, 100 is complete control
# [15] = Preemergence, 62 g ai/ha, scale 0 to 100, 0 is no effect, 100 is complete control
# [16] = Preemergence, 125 g ai/ha, scale 0 to 100, 0 is no effect, 100 is complete control
# [17] = Preemergence, 250 g ai/ha, scale 0 to 100, 0 no effect, 100 complete control
# [18] = postemergence, 62 g ai/ha, scale 0 to 100, 0 no effect, 100 complete control
smiles,measurement,setting,value
"Cc1nn(C)c(=O)c(-c2cccc3ccccc23)c1O [Compound 11, 5-hydroxy-2,6-dimethyl-4-(1-naphthalenyl)-3(2H)-pyridazinone]",pest or weed control at 1000 g/ha,"[1]; post-emergence, Postemergence, 0 is no effect, 100 is complete control, read-out: Barnyardgrass plant response rating",80%
same,pest or weed control at 1000 g/ha,"[1]; pre-emergence, Preemergence, 0 no effect, 100 complete control, read-out: Plant response rating, Barnyardgrass",90%
same,Corn plant response rating,[2]; [11],0
same,"Plant response rating, Corn",[2]; [12],0
same,"Plant response rating, Corn",[2]; [13],0
same,"Plant response rating, Corn",[2]; [14],0
same,"Plant response rating, Corn",[2]; [15],0
same,"Plant response rating, Corn",[2]; [16],0
same,Corn plant response rating,[2]; [17],0
same,Corn plant response rating,[2]; [18],0
same,Waterhemp plant response rating,[3]; [11],80
same,"Plant response rating, Waterhemp",[3]; [12],95
same,"Plant response rating, Waterhemp",[3]; [13],95
same,"Plant response rating, Waterhemp",[3]; [15],100
same,"Plant response rating, Waterhemp",[3]; [16],100
same,Waterhemp plant response rating,[3]; [17],100
same,Waterhemp plant response rating,[3]; [18],80
same,"Foxtail, Giant plant response rating",[4]; [11],5
same,"Plant response rating, Foxtail, Giant",[4]; [12],10
same,"Plant response rating, Foxtail, Giant",[4]; [13],30
same,"Plant response rating, Foxtail, Giant",[4]; [14],0
same,"Plant response rating, Foxtail, Giant",[4]; [15],35
same,"Plant response rating, Foxtail, Giant",[4]; [16],50
same,"Foxtail, Giant plant response rating",[4]; [17],90
same,"Foxtail, Giant plant response rating",[4]; [18],5
same,Johnsongrass plant response rating,[5]; [11],0
same,"Plant response rating, Johnsongrass",[5]; [12],5
same,"Plant response rating, Johnsongrass",[5]; [13],5
same,"Plant response rating, Johnsongrass",[5]; [14],0
same,"Plant response rating, Johnsongrass",[5]; [15],0
same,"Plant response rating, Johnsongrass",[5]; [16],0
same,Johnsongrass plant response rating,[5]; [17],0
same,Johnsongrass plant response rating,[5]; [18],0
same,Wheat plant response rating,[6]; [11],0
same,"Plant response rating, Wheat",[6]; [12],5
same,"Plant response rating, Wheat",[6]; [13],5
same,"Plant response rating, Wheat",[6]; [15],0
same,"Plant response rating, Wheat",[6]; [16],0
same,Wheat plant response rating,[6]; [17],10
same,Wheat plant response rating,[6]; [18],0
same,Morningglory plant response rating,[7]; [11],70
same,"Plant response rating, Morningglory",[7]; [12],90
same,"Plant response rating, Morningglory",[7]; [13],98
same,"Plant response rating, Morningglory",[7]; [14],100
same,"Plant response rating, Morningglory",[7]; [15],100
same,"Plant response rating, Morningglory",[7]; [16],100
same,Morningglory plant response rating,[7]; [17],100
same,Morningglory plant response rating,[7]; [18],80
same,Oilseed Rape plant response rating,[8]; [11],0
same,"Plant response rating, Oilseed Rape",[8]; [12],0
same,"Plant response rating, Oilseed Rape",[8]; [13],0
same,"Plant response rating, Oilseed Rape",[8]; [14],0
same,"Plant response rating, Oilseed Rape",[8]; [15],0
same,"Plant response rating, Oilseed Rape",[8]; [16],0
same,Oilseed Rape plant response rating,[8]; [17],0
same,Oilseed Rape plant response rating,[8]; [18],0
same,"Crabgrass, Large plant response rating",[9]; [11],0
same,"Plant response rating, Crabgrass, Large",[9]; [12],0
same,"Plant response rating, Crabgrass, Large",[9]; [13],10
same,"Plant response rating, Crabgrass, Large",[9]; [14],0
same,"Plant response rating, Crabgrass, Large",[9]; [15],0
same,"Plant response rating, Crabgrass, Large",[9]; [16],40
same,"Crabgrass, Large plant response rating",[9]; [17],40
same,"Crabgrass, Large plant response rating",[9]; [18],0
same,Lambsquarters plant response rating,[10]; [11],80
same,"Plant response rating, Lambsquarters",[10]; [12],90
same,"Plant response rating, Lambsquarters",[10]; [13],90
same,"Plant response rating, Lambsquarters",[10]; [14],70
same,"Plant response rating, Lambsquarters",[10]; [15],100
same,"Plant response rating, Lambsquarters",[10]; [16],100
same,Lambsquarters plant response rating,[10]; [17],100
same,Lambsquarters plant response rating,[10]; [18],90
